Data published in US9549921B2, “Heterocyclic compounds and methods of use thereof for the treatment of hepatitis C” (priority 2014, dated 2017).
Read-outs that look alike come from different tables or passages of the source.

How the values were obtained:
HCV replicon genotype 1a = experiment: HCV replicon assay, genotype 1a (cell ELISA for NS3/4A); format: cell-based, hepatitis C virus
Summary of the method: (§1)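 Readout is NS3/4A protein level from an antibody-based cell ELISA, serving as an indirect measure of replicon RNA; IC50 fitted with a four-parameter function relative to DMSO control. Replicon cells, kept under G418 beforehand, were plated with serial compound dilutions minus G418 for 96 hours.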

HCV replicon genotype 1b = experiment: HCV replicon assay, genotype 1b (cell ELISA for NS3/4A); format: cell-based, hepatitis C virus
Summary of the method: as §1

[1] = Hepatitis C virus, 96 h, read-out: 1a IC50 (nM), HCV genotype 1a replicon cells, 96 hours incubation, NS3/4A ELISA readout, % of DMSO control
[2] = Hepatitis C virus, 96 h, read-out: 1b IC50 (nM), HCV genotype 1b replicon cells, 96 hours incubation, NS3/4A ELISA readout, % of DMSO control
[3] = read-out: 1a IC50, HCV genotype 1a replicon cells, 96 hours incubation, NS3/4A ELISA readout, % of DMSO control
[4] = read-out: 1b IC50, HCV genotype 1b replicon cells, 96 hours incubation, NS3/4A ELISA readout, % of DMSO control

| Compound | IC50 (HCV replicon genotype 1a; [1]) | IC50 (HCV replicon genotype 1b; [2]) | IC50 (HCV replicon genotype 1a; [3]) | IC50 (HCV replicon genotype 1b; [4]) | other results |
| --- | --- | --- | --- | --- | --- |
| CNC(=O)c1c(-c2ccc(F)cc2)oc2cc(N(C)S(C)(=O)=O)c([C@@H]3CCCN(S(=O)(=O)c4cccc(C)c4)C3)cc12 [Example 126, 2-(4-fluorophenyl)-N-methyl-6-[methyl(methylsulfonyl)amino]-5-{(3S)-1-[(3-methylphenyl)sulfonyl]piperidin-3-yl}-1-benzofuran-3-carboxamide] | 46.9 nM | 13.2 nM |  |  |  |
| CNC(=O)c1c(-c2ccc(F)cc2)oc2cc(N(C)S(C)(=O)=O)c([C@@H]3CCCN(c4nc5ncccc5o4)C3)cc12 (single isomer, unassigned) [Example 54, 2-(4-fluorophenyl)-N-methyl-6-(N-methylmethylsulfonamido)-5-(1-(oxazolo[4,5-b]pyridin-2-yl)piperidin-3-yl)benzofuran-3-carboxamide] |  |  | 7.38 nM | 13.9 nM |  |
| CNC(=O)c1c(-c2ccc(F)cc2)oc2cc(N(C)S(C)(=O)=O)c([C@@H]3CCCN(c4nc5c(C#N)cccc5o4)C3)cc12 [Example 5, (S)-5-(1-(4-cyanobenzo[d]oxazol-2-yl)piperidin-3-yl)-2-(4-fluorophenyl)-N-methyl-6-(N-methylmethylsulfonamido)benzofuran-3-carboxamide] | 53.7 nM | 19.3 nM |  |  |  |
| CNC(=O)c1c(-c2ccc(F)cc2)oc2cc(N(C)S(C)(=O)=O)c([C@@H]3CCN(C(=O)c4cc5c(F)cccc5n4C)C3)cc12 (single isomer, unassigned) [Example 14, 5-(1-(4-fluoro-1-methyl-1H-indole-2-carbonyl)pyrrolidin-3-yl)-2-(4-fluorophenyl)-N-methyl-6-(N-methylmethylsulfonamido)benzofuran-3-carboxamide] |  |  | 25.9 nM | 2.77 nM |  |
| CNC(=O)c1c(-c2ccc(F)cc2)oc2cc(N(C)S(C)(=O)=O)c([C@@H]3CCCN(S(=O)(=O)Cc4ccncc4)C3)cc12 [Example 109, 2-(4-fluorophenyl)-N-methyl-6-[methyl(methylsulfonyl)amino]-5-{(3S)-1-[(pyridin-4-ylmethyl)sulfonyl]piperidin-3-yl}-1-benzofuran-3-carboxamide] | 104 nM | 26.2 nM |  |  |  |
| CNC(=O)c1c(-c2ccc(F)cc2)oc2cc(N(C)S(C)(=O)=O)c([C@H]3CN(C(=O)c4cc5c(F)cccc5n4C)CCO3)cc12 (single isomer, unassigned) [Example 9, 5-(4-(4-fluoro-1-methyl-1H-indole-2-carbonyl)morpholin-2-yl)-2-(4-fluorophenyl)-N-methyl-6-(N-methylmethylsulfonamido)benzofuran-3-carboxamide] |  |  | 54 nM | 67.8 nM |  |
| CNC(=O)c1c(-c2ccc(F)cc2)oc2cc(N(C)S(C)(=O)=O)c(C3CCCN(C(=O)[C@H](NC(=O)OC(C)(C)C)c4ccccc4F)C3)cc12 (single isomer, unassigned) [Example 28] |  |  | 23.9 nM | 21.4 nM |  |
| CNC(=O)c1c(-c2ccc(F)cc2)oc2cc(N(C)S(C)(=O)=O)c([C@@H]3CCCN(C(=O)c4nc5ccccc5n4C)C3)cc12 (single isomer, unassigned) [Example 23, 2-(4-fluorophenyl)-N-methyl-5-(1-(1-methyl-1H-benzo[d]imidazole-2-carbonyl)piperidin-3-yl)-6-(N-methylmethylsulfonamido)benzofuran-3-carboxamide] | 45.5 nM | 57.7 nM |  |  |  |
| CNC(=O)c1c(-c2ccc(F)cc2)oc2cc(N(C)S(C)(=O)=O)c(C3CCCN(c4nc5cc(F)ccc5o4)C3)cc12 (centres unmarked) [Example 51] |  |  |  |  | IC50 (HCV replicon genotype 1a; HCV genotype 1a replicon cells, 96 hours incubation, NS3/4A ELISA readout, % of DMSO control, read-out: 1a IC50): 4.99 nM; IC50 (HCV replicon genotype 1b; HCV genotype 1b replicon cells, 96 hours incubation, NS3/4A ELISA readout, % of DMSO control, read-out: 1b IC50): 7.12 nM |
| CNC(=O)c1c(-c2ccc(F)cc2)oc2cc(N(C)S(C)(=O)=O)c([C@H]3CCCN(C(=O)c4nn(C)c(=O)c5ccccc45)C3)cc12 [Example 96, 2-(4-fluorophenyl)-N-methyl-6-[methyl(methylsulfonyl)amino]-5-{(3R)-1-[(3-methyl-4-oxo-3,4-dihydrophthalazin-1-yl)carbonyl]piperidin-3-yl}-1-benzofuran-3-carboxamide] | 423 nM | 219 nM |  |  |  |
